Reference: patent US10450318B2, “CXCR4 receptor antagonists” (BRISTOL-MYERS SQUIBB COMPANY, priority 2015, dated 2019)

Molecular target: T1, CXCR4 receptors (Homo sapiens, UniProt P61073)
T1 construct: expressing endogenous CXCR4 receptors; endogenous in cells; host or cells: CCRF-CEM (human T lymphoblast cells)
Test: CXCR4-CEM calcium flux assay, antagonist mode (inhibition of SDF-1α-induced calcium flux)
Assay type: cell-based
Conditions: inhibition of calcium flux induced by 4 nM SDF-1α in CCRF-CEM cells
Experimental: Exemplary compounds of the invention were tested for their ability to induce or inhibit calcium flux in CCRF-CEM cells. […] CXCR4-CEM Calcium Flux Assays. […] The cells were then equilibrated to room temperature for 30 minutes before assay. […] The serially diluted compounds were diluted to working concentrations with the same assay buffer to 0.5% DMSO. […] Activity of the compounds to induce calcium flux was monitored by FDSS in the “agonist mode” for 90 sec. For “antagonist mode” assessment, the cells are subsequently incubated for 25 min at room temperature. SDF-1α (R&D System Cat#350-NS/CF) was then added at a final concentration of 4 nM to stimulate the cells. Inhibition of SDF-1α-induced calcium flux was monitored by FDSS6000 for 90 sec. […] After correcting for background, EC50 values were determined. […] Inhibition data for the test compound over a range of concentrations was plotted as percentage inhibition of the test compound as compared to an internal control compound.

T1 sequence (P61073 whole entry): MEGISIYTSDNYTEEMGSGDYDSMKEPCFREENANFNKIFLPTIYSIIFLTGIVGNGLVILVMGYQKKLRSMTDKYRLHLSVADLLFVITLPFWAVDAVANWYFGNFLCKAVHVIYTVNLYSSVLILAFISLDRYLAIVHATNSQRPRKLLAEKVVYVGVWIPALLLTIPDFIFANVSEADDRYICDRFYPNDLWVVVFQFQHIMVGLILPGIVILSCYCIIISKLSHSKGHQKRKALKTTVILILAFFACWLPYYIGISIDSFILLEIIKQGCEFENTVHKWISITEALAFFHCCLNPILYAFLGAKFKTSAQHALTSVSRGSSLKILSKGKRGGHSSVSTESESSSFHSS

Compound	IC50 [µM]
Cc1ccc(CN2CCN(c3nccc4nc(CN(C)[C@H]5CCCc6cccnc65)cn34)CC2)cc1 [Example 53, (S)-N-methyl-N-[(5-{4-[(4-methylphenyl)methyl]piperazin-1-yl}imidazo[1,2-c]pyrimidin-2-yl)methyl]-5,6,7,8-tetrahydroquinolin-8-amine]	0.017
CN(Cc1cn2c(N3CCN(Cc4ccco4)CC3)nccc2n1)[C@H]1CCCc2cccnc21 [Example 54, (S)-N-({5-[4-(furan-2-ylmethyl)piperazin-1-yl]imidazo[1,2-c]pyrimidin-2-yl}methyl)-N-methyl-5,6,7,8-tetrahydroquinolin-8-amine]	0.0056
CN(Cc1cn2c(N3CCN(Cc4ccccn4)CC3)nccc2n1)[C@H]1CCCc2cccnc21 [Example 55, (S)-N-methyl-N-({5-[4-(pyridin-2-ylmethyl)piperazin-1-yl]imidazo[1,2-c]pyrimidin-2-yl}methyl)-5,6,7,8-tetrahydroquinolin-8-amine]	0.009
CN(Cc1cn2c(N3CCN(Cc4cccn4C)CC3)nccc2n1)[C@H]1CCCc2cccnc21 [Example 56, (S)-N-methyl-N-[(5-{4-[(1-methyl-1H-pyrrol-2-yl)methyl]piperazin-1-yl}imidazo[1,2-c]pyrimidin-2-yl)methyl]-5,6,7,8-tetrahydroquinolin-8-amine]	0.0046
CN(Cc1cn2c(N3CCN(Cc4cccc(Oc5ccccc5)c4)CC3)nccc2n1)[C@H]1CCCc2cccnc21 [Example 57, (8S)-N-methyl-N-[(5-{4-[(3-phenoxyphenyl)methyl]piperazin-1-yl}imidazo[1,2-c]pyrimidin-2-yl)methyl]-5,6,7,8-tetrahydroquinolin-8-amine]	0.028
CN(Cc1cn2c(N3CCN(CC4CCCO4)CC3)nccc2n1)[C@H]1CCCc2cccnc21 (stereo partly drawn) [Example 58, (S)-N-methyl-N-({5-[4-(oxolan-2-ylmethyl)piperazin-1-yl]imidazo[1,2-c]pyrimidin-2-yl}methyl)-5,6,7,8-tetrahydroquinolin-8-amine]	0.06
CN(Cc1cn2c(N3CCN(Cc4ccccc4O)CC3)nccc2n1)[C@H]1CCCc2cccnc21 [Example 59, 2-({4-[2-({methyl[(S)-5,6,7,8-tetrahydroquinolin-8-yl]amino}methyl)imidazo[1,2-c]pyrimidin-5-yl]piperazin-1-yl}methyl)phenol]	0.025
CN(C)c1ccc(CN2CCN(c3nccc4nc(CN(C)[C@H]5CCCc6cccnc65)cn34)CC2)cc1 [Example 60, (8S)-N-{[5-(4-{[4-(dimethylamino)phenyl]methyl}piperazin-1-yl)imidazo[1,2-c]pyrimidin-2-yl]methyl}-N-methyl-5,6,7,8-tetrahydroquinolin-8-amine]	0.0076
CN(Cc1cn2c(N3CCN(CCc4ccc(O)cc4)CC3)nccc2n1)[C@H]1CCCc2cccnc21 [Example 61, 4-(2-{4-[2-({methyl[(S)-5,6,7,8-tetrahydroquinolin-8-yl]amino}methyl)imidazo[1,2-c]pyrimidin-5-yl]piperazin-1-yl}ethyl)phenol]	0.033
CN(Cc1cn2c(N3CCN(S(=O)(=O)c4cccs4)CC3)nccc2n1)[C@H]1CCCc2cccnc21 [Example 62, (S)-N-methyl-N-({5-[4-(thiophene-2-sulfonyl)piperazin-1-yl]imidazo[1,2-c]pyrimidin-2-yl}methyl)-5,6,7,8-tetrahydroquinolin-8-amine]	19.6
CN(Cc1cn2c(N3CCN(S(=O)(=O)c4ccccc4)CC3)nccc2n1)[C@H]1CCCc2cccnc21 [Example 63, (S)-N-({5-[4-(benzenesulfonyl)piperazin-1-yl]imidazo[1,2-c]pyrimidin-2-yl}methyl)-N-methyl-5,6,7,8-tetrahydroquinolin-8-amine]	16.7
CN(Cc1cn2c(N3CCN(Cc4ccc(C(F)(F)F)cc4)CC3)nccc2n1)[C@H]1CCCc2cccnc21 [Example 64, (S)-N-methyl-N-{[5-(4-{[4-(trifluoromethyl)phenyl]methyl}piperazin-1-yl)imidazo[1,2-c]pyrimidin-2-yl]methyl}-5,6,7,8-tetrahydroquinolin-8-amine]	0.011
CC(CCN1CCN(c2nccc3nc(CN(C)[C@H]4CCCc5cccnc54)cn23)CC1)c1ccccc1 (stereo partly drawn) [Example 65, (S)-N-methyl-N-({5-[4-(3-phenylbutyl)piperazin-1-yl]imidazo[1,2-c]pyrimidin-2-yl}methyl)-5,6,7,8-tetrahydroquinolin-8-amine]	0.016
CN(Cc1cn2c(N3CCN(Cc4cccc(C#N)c4)CC3)nccc2n1)[C@H]1CCCc2cccnc21 [Example 66, 3-({4-[2-({methyl[(S)-5,6,7,8-tetrahydroquinolin-8-yl]amino}methyl)imidazo[1,2-c]pyrimidin-5-yl]piperazin-1-yl}methyl)benzonitrile]	0.0094
CN(Cc1cn2c(N3CCN(Cc4nccs4)CC3)nccc2n1)[C@H]1CCCc2cccnc21 [Example 67, (S)-N-methyl-N-({5-[4-(1,3-thiazol-2-ylmethyl)piperazin-1-yl]imidazo[1,2-c]pyrimidin-2-yl}methyl)-5,6,7,8-tetrahydroquinolin-8-amine]	0.042
CN(Cc1cn2c(N3CCN(C(=O)Nc4cccc(Cl)c4)CC3)nccc2n1)[C@H]1CCCc2cccnc21 [Example 68, N-(3-chlorophenyl)-4-[2-({methyl[(S)-5,6,7,8-tetrahydroquinolin-8-yl]amino}methyl)imidazo[1,2-c]pyrimidin-5-yl]piperazine-1-carboxamide]	0.05
CN(Cc1cn2c(N3CCN(Cc4cccc(O)c4)CC3)nccc2n1)[C@H]1CCCc2cccnc21 [Example 69, 3-({4-[2-({methyl[(S)-5,6,7,8-tetrahydroquinolin-8-yl]amino}methyl)imidazo[1,2-c]pyrimidin-5-yl]piperazin-1-yl}methyl)phenol]	0.0038
CN(Cc1cn2c(N3CCNCC3)nccc2n1)[C@H]1CCOc2cccnc21 [Example 70, (S)—N-Methyl-N-((5-(piperazin-1-yl)imidazo[1,2-c]pyrimidin-2-yl)methyl)-3,4-dihydro-2H-pyrano[3,2-b]pyridin-4-amine]	0.0042
CN(Cc1nc2ccnc(N3CCNCC3)n2c1CO)[C@H]1CCOc2cccnc21 [Example 71, (S)-(2-(((3,4-Dihydro-2H-pyrano[3,2-b]pyridin-4-yl)(methyl)amino)methyl)-5-(piperazin-1-yl)imidazo[1,2-c]pyrimidin-3-yl)methanol]	0.0027
CN(Cc1cn2c(N3CCNCC3)nc(Cl)cc2n1)[C@H]1CCCc2cccnc21 [Example 72, (S)—N-((7-Chloro-5-(piperazin-1-yl)imidazo[1,2-c]pyrimidin-2-yl)methyl)-N-methyl-5,6,7,8-tetrahydroquinolin-8-amine]	0.33
C[C@@H]1CN(c2nccc3nc(CN(C)[C@H]4CCCc5cccnc54)cn23)C[C@H](C)N1 [Example 73, (S)—N-((5-((3S,5R)-3,5-Dimethylpiperazin-1-yl)imidazo[1,2-c]pyrimidin-2-yl)methyl)-N-methyl-5,6,7,8-tetrahydroquinolin-8-amine]	0.12
CN(Cc1cn2c(N3CCC(N)C3)nccc2n1)[C@H]1CCCc2cccnc21 (stereo partly drawn) [Example 74, (8S)-N-((5-(3-aminopyrrolidin-1-yl)imidazo[1,2-c]pyrimidin-2-yl)methyl)-N-methyl-5,6,7,8-tetrahydroquinolin-8-amine]	0.079
CN(Cc1cn2c(N3CCN4CCC[C@H]4C3)nccc2n1)[C@H]1CCCc2cccnc21 [Example 76, (S)-N-((5-((S)-hexahydropyrrolo[1,2-a]pyrazin-2(1H)-yl)imidazo[1,2-c]pyrimidin-2-yl)methyl)-N-methyl-5,6,7,8-tetrahydroquinolin-8-amine]	0.0064
CN(Cc1cn2c(N3CCNC[C@H]3CO)nccc2n1)[C@H]1CCCc2cccnc21 [Example 77, ((S)-1-(2-((methyl((S)-5,6,7,8-tetrahydroquinolin-8-yl)amino)methyl)imidazo[1,2-c]pyrimidin-5-yl)piperazin-2-yl)methanol]	0.25
CN(Cc1cn2c(N3CC4CNCC4C3)nccc2n1)[C@H]1CCCc2cccnc21 (stereo partly drawn) [Example 80, (8S)-N-((5-(hexahydropyrrolo[3,4-c]pyrrol-2(1H)-yl)imidazo[1,2-c]pyrimidin-2-yl)methyl)-N-methyl-5,6,7,8-tetrahydroquinolin-8-amine]	0.023
CN1CC2CN(c3nccc4nc(CN(C)[C@H]5CCCc6cccnc65)cn34)CC2C1 (stereo partly drawn) [Example 81, (8S)-N-methyl-N-((5-(5-methylhexahydropyrrolo[3,4-c]pyrrol-2(1H)-yl)imidazo[1,2-c]pyrimidin-2-yl)methyl)-5,6,7,8-tetrahydroquinolin-8-amine]	0.032
CN(Cc1cn2c(N3CCn4cnnc4C3)nccc2n1)[C@H]1CCCc2cccnc21 [Example 82, (S)-N-((5-(5,6-dihydro-[1,2,4]triazolo[4,3-a]pyrazin-7(8H)-yl)imidazo[1,2-c]pyrimidin-2-yl)methyl)-N-methyl-5,6,7,8-tetrahydroquinolin-8-amine]	3.78
CN(Cc1cn2c(N3CCn4ccnc4C3)nccc2n1)[C@H]1CCCc2cccnc21 [Example 83, (S)-N-((5-(5,6-dihydroimidazo[1,2-a]pyrazin-7(8H)-yl)imidazo[1,2-c]pyrimidin-2-yl)methyl)-N-methyl-5,6,7,8-tetrahydroquinolin-8-amine]	0.15
CN(Cc1cn2c(N3CCN(CC(F)(F)F)CC3)nccc2n1)[C@H]1CCCc2cccnc21 [Example 84, (S)-N-methyl-N-((5-(4-(2,2,2-trifluoroethyl)piperazin-1-yl)imidazo[1,2-c]pyrimidin-2-yl)methyl)-5,6,7,8-tetrahydroquinolin-8-amine]	> 16
